Measured values published in patent US20240269287A1, “MICROBUBBLE-ASSISTED ULTRASOUND-GUIDED THERAPY” (THE BOARD OF REGENTS OF THE UNIVERSITY OF TEXAS SYSTEM, priority 2021, published 2024).

Legend:
[1] = system: BMDMs; assay type: cell-based, mouse
Method: Mouse bone marrow-derived macrophages (BMDMs) were isolated from the hind leg femur bone marrow of C57BL/6J mice and were cultured or activated with macrophage colony-stimulating factor (M-CSF, 50 ng ml-1) according to standardized procedures. The purity of the induced cells was assessed by flow cytometry for CD45+CD11b+ cells.
One day before treatment, cells were plated at 400,000 cells/well in a 12 well plate. […] […] Plates were flipped upside down and left to incubate for 10 min at 37° C. Cells were diluted to 2.5 mL with PFB-saturated RPMI, placed on top of a water bath set to 37° C., then sonoporated at 1 MHz, with 1 W/cm^2 power density, 20% duty cycle (DC) for 60 seconds (SONITRON® GTS, 15 mm diameter). Fluorescence microscopy images were taken at different time points (0, 3, 6, 12, 24, and 48 h).

[2] = system: EO771 orthotopic breast tumors; assay: Tumor growth and survival; assay type: in vivo, mouse; settings: wild type mice, three intratumoral treatments every other day, 100 μg cGAMP
Method: Orthotopic mammary fat pad tumors were established as in Example 9. […] The mice were injected intratumorally with 20 μL of solution infused at 1 μL/second using a syringe pump. […] The mice were treated every other day for a total of three treatments (days 13, 15, and 17). US, where part of the treatment group, was applied by using acoustic coupling gel and a 1-MHz plane wave transducer operating at 4 W/cm^2 for 60 seconds and a 50% duty cycle given to opposite sides of the tumor for a total treatment time of 120 seconds. At 18 days post tumor inoculation treated mice were sacrificed.
Tumor sizes were measured every two days using digital calipers, and tumor volume was calculated according to an ellipsoid formula as 0.5×length×width^2. Mice were sacrificed if any tumor ulceration was observed or if tumors reached 2000 mm^3 in volume. The final tumor volume comparison between the MUSIC and control groups was done when the first mice from a control group was sacrificed. […] Statistical analysis was done using an unpaired t-test for tumor sizes and Log-rank test for survival curves.

[3] = system: STING pathway in BMDMs; assay: STING signaling after treatment (qRT-PCR, ELISA, western blot, immunostaining); assay type: cell-based, mouse
Method: Mouse BMDMs and human THP-1 cells were cultured as described above.

Row | Compound | uptake of diGMP (fluorescence microscopy) [1] | mice with complete tumor remission / complete response [2] | STING or IRF-3 phosphorylation (western blot) [3]
1 | 2′-O-(6-[DY547]-aminohexylcarbamoyl)-cyclic diguanosine monophosphate [diGMP only] | weak uptake |  | 
2 | Nc1nc2c(ncn2[C@@H]2O[C@@H]3COP(=O)(O)O[C@H]4[C@@H](O)[C@H](n5cnc6c(N)ncnc65)O[C@@H]4COP(=O)(O)O[C@@H]2[C@@H]3O)c(=O)[nH]1 [cGAMP, cyclic guanosine monophosphate-adenosine monophosphate] |  | 2 out of 10 | no STING or IRF-3 phosphorylation
